Tests used:
[1] = tested on: human MLKL; assay: Western blot of Ser358 phospho-MLKL, phosphorylation and polymerization of MLKL; format: cell-based; conditions: non-reducing conditions, cells with A2E/ATRD
Procedure: Immunoblotting. Total cell lysates were extracted using RIPA lysis buffer (50 mM TrisHCl, Ph 8.0, 150 mM NaCl, 1% NP40, 0.5% Sodium Deoxycholate, 0.1% SDS, protease-phosphatase inhibitor) after the incubation of the specific sample group in a 48 well plate. Sonication or syringing (20 times) was done followed by centrifugation at 12,000×g for 10 mins and the supernatant was collected and stored in −80° C. Proten concentration from homogenates were assessed by Pierce Rapid Gold BCA protein assay kit (ThermoFisher Scientific, cat.no. A53225). Then 30 μg of protein was analyzed by standard SDS-PAGE gel. Samples were mixed 4:1 (v:v) with Nupage loading buffer with or without 8% 0-mercaptoethanol and heated for 10 min at 72° C. SDS-PAGE was done using 4-12% Nupage gel and buffer (Life, NP0335BOX). Next, SDS-PAGE gel was transferred to nitrocellulose membrane (Whatman, PROTAN BA83) overnight at 20V. The following day, 5% milk in TBS was used for 2 h blocking the membrane and then primary antibody was added in TBST (TBS, 0.1% Tween-20) for overnight at 4° C. Next day membranes were washed and incubated for 2 hours at room temperature with HRP conjugated secondary antibody (cat #G21234, Invitrogen) at 1:10,000 dilution. After 3 more washed membranes were probed with enhanced chemiluminescence (ECL) reagent and detected using an X-ray films for chemiluminescence image (GE healthcare, RPN2106). Scanning/imaging and quantitation of the image was done using silverfast 8 application software and Fiji Image J. Antibodies for Western blotting were list in FIG. 10.
For its phosphorylation, MLKL and its kinase need to be recruited into multiprotein complexes, known as necrosomes (FIG. 4O). Necrosomes are not well conserved among species and vary also with the nature of the stimuli that triggers their formation. […] Considering that phosphorylation of human MLKL at Ser358 (pMLKL), is a hallmark triggering event and marker of necroptosis, the Ser358-phosphorylation and polymerization status of MLKL in cells with LF was determined. […] A prerequisite for the assembly of these RIP kinases into necrosomes was their phosphorylation.

[2] = tested on: activated microglia/macrophages; assay: Intravitreal treatment of DKO mice, subretinal microglia/macrophage infiltration; format: in vivo, ABCA4−/− RDH8−/− double knock-out mice (DKO)
Procedure: Animals. Pigmented ABCA4^−/− RDH8^−/− double knock-out mice (DKO), free of rd8 mutation, were purchased from Jackson laboratories and every 10 generations were in house backcrossed to the C57BL6J control strain, to prevent genetic drifts. Genotyping was performed at Transnetyx (Memphis, TN). Only mice with ABCA4, RDH8, RPE65-Leu450 but no crb1 mutations (retinal degeneration slow) were maintained in the colony. Controls C57BL/6J (Rpe65-Leu450, crb1negative) were also Jackson's lab. All mice were housed at Weill Cornell Medicine's animal facility under a 12 h light (˜10 lux)/12 h dark cycle environment or under complete darkness. Experimental manipulations in the dark were done under dim red light transmitted through a Kodak No. 1 safelight filter (transmittance >560 nm). No retinal degeneration or necroptosis markers were appreciably detected in 20 months or older C57BL6/N (Rpe65-Met450, crb1 positive) obtained from the NAI/NIH. All animal procedures and experiments were approved by the Animal Care and Use Committee of Weill Cornell Medical College in agreement with the guidelines established by the NIH Office of Laboratory Animal Welfare and the Association of Research for Vision and Ophthalmology (ARVO) statement for the use of animals in ophthalmic research. […]
Pharmacological treatment of mice. […] The exact volume of Mock reagent or Kira6 was determined by 10 μl Hamilton syringe. […]

Row | SMILES | effect on LF-induced phosphorylation and polymerization of MLKL [1] | Iba-1+ cells attached to the apical side of RPE ([2]; RPE-flat mounts, center to periphery) | infiltration of CD11b cells in the subretinal space ([2]; RPE-flat mounts from 25- to 27-month-old DKO mice)
1 | CC(C)(C)c1nc(-c2ccc(NC(=O)Nc3cccc(C(F)(F)F)c3)c3ccccc23)c2c(N)nccn12 [KIRA6] | prevents phosphorylation and polymerization of MLKL | No Iba-1+ cells were detected | 
2 | N=C1S/C(=C\c2cn[nH]c2-c2ccc(F)cc2)C(=O)N1c1nccs1 [Nec7, Necrostatin 7] | reduced LF-induced phosphorylation and polymerization of MLKL |  | reduced the infiltration of CD11b cells

— patent US20240082221A1, “COMPOSITIONS AND METHODS FOR THE IDENTIFICATION OF COMPOUNDS THAT PROTECT AGAINST LIPOFUSCIN CYTOTOXICITY” (priority 2021, published 2024)
